{
  "source": "patent US11691962B2",
  "about": "(eXIthera Pharmaceuticals, Inc., priority 2018, dated 2023)",
  "key": {"[1]": {"biological_target": "Factor Xa (Homo sapiens (Human), UniProt P00742)", "sequence (P00742 235-488)": "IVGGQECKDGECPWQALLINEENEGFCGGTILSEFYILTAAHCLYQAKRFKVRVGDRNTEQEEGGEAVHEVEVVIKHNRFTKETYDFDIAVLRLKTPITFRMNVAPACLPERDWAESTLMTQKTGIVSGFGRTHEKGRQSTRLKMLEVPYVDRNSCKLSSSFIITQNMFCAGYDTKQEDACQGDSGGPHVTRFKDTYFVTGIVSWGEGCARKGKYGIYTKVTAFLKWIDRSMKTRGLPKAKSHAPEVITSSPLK", "sequence (P00742 41-179 partner)": "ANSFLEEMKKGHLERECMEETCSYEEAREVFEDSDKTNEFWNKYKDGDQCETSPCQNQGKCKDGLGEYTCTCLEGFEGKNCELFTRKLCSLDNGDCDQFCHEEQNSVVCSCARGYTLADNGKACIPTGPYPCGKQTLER", "assay": "Dose response assay for protease inhibitors: Factor Xa", "assay_type": "biochemical", "settings": "selectivity, Factor Xa over Factor XIa", "how_it_was_run": "(§1)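 Fluorogenic AMC-peptide cleavage in 20 mM Hepes pH 7.4, 150 mM NaCl, 0.02% Tween 20; 100 μM stock substrate dilution (Glp-Pro-Arg-AMC for thrombin/trypsin; Pro-Phe-Arg-AMC or Boc-Leu-Gly-Arg-AMC for Factor Xa). Enzyme diluted to 0.5 nM, added last to two-fold compound series; kinetic read at 30° C, 30 min (Factor Xa 60 min); IC50 fitted.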"}, "[2]": {"biological_target": "Thrombin (Homo sapiens (Human), UniProt P00734)", "assay": "Dose response assay for protease inhibitors: thrombin", "assay_type": "biochemical", "settings": "selectivity, thrombin over Factor XIa", "how_it_was_run": "as §1"}, "[3]": {"assay": "Metabolic stability in dog hepatocytes", "assay_type": "in vitro ADME", "settings": "pooled cryopreserved hepatocytes; beagle dog hepatocytes, 2 μM compound; read-out: Dog Hepatocyte Stability (t1/2)", "method": "The following procedure was used to determine the stability of test compounds in beagle dog hepatocytes in a 96-well plate format. The test compounds, including the controls, imipramine and 7-ethoxycoumarin, were dissolved at 10 mM in DMSO, followed by further 5-fold dilution with DMSO to 2 mM. Pooled cryopreserved beagle dog hepatocytes were thawed and transferred into complete medium. Cells were gently centrifuged (700 rpm for 5 min) and the pellet rinsed with KHB (Krebs Henseleit buffer). Cells were resuspended, counted using Trypan blue, and adjusted to 1 million cells/mL in KHB buffer. The 2 mM compound stock solutions were diluted 10-fold with acetonitrile, followed by a further 50-fold dilution with KHB buffer. 200 μL of these compound solutions were transferred to 96-well polypropylene assay plates and an equal volume of the hepatocyte solution was added and mixed to initiate the reaction (final assay concentrations were 2 μM compound and 500,000 cells/mL). Assay plates were incubated at 37° C. in 5% CO2 with gentle agitation. 50 μL aliquots were removed at multiple time points out to 180 minutes and quenched with 6 volumes of cold acetonitrile (containing 250 ng/mL of carbutamide and chrysin as internal standards) to terminate the reaction and precipitate protein. Quenched samples were maintained on ice. The quenched samples were centrifuged at 2000×g (3100 rpm) for 10 minutes at 4° C. 50 μL aliquots of the supernatants were removed and diluted with 100 μL Milli-Q water to reduce the % organic content prior to bioanalysis by LC-MS/MS. Peak areas corresponding to the test compound were recorded. The compound remaining was calculated by comparing the peak area at each time point to time zero. Data were analyzed and results were calculated using Microsoft Excel 2010."}, "[4]": {"assay": "Plasma protein binding by equilibrium dialysis", "assay_type": "in vitro ADME", "settings": "both sexes, pH 7.4, pooled human plasma, 4 hours at 37° C., read-out: PPB (%)", "method": "The following procedure was used to determine the plasma protein binding of a test compound in pooled plasma from human (mixed gender) via equilibrium dialysis in a 96-well plate format. The dialysate compartment was loaded with phosphate-buffered saline (pH 7.4) and the sample side was loaded with plasma spiked with the test compound at a concentration of 10 μM. After loading, samples were covered and incubated for 4 hours at 37° C. After incubation, each compartment was sampled, diluted with acetonitrile/buffer and centrifuged. The supernatants were analyzed by HPLC-MS/MS. The analyte peak areas obtained from HPLC-MS/MS analysis of each sample were used to calculate protein binding according to the following equation (Equation 4):\n[formula] where: AREAp=Peak area of analyte in protein matrix; AREAb=Peak area of analyte in buffer.\nThe amount measured in the plasma compartment included both free and bound drug, while that on the buffer side represented free drug only; the differences were used to calculate the percentage plasma protein bound. Three reference compounds were tested in each assay: acebutolol, quinidine and warfarin."}, "[5]": {"system": "Trypsin", "assay": "Dose response assay for protease inhibitors: trypsin", "assay_type": "biochemical", "settings": "selectivity, trypsin over Factor XIa", "how_it_was_run": "as §1"}},
  "data": [
    {"smiles": "CC[C@@H](NC(=O)N1C(=O)[C@H](Cc2ccnc(N)c2)[C@H]1C(=O)N(C)c1nccn1C)C1CCCCC1", "note": "[Compound 1-55, (2S,3R)-3-((2-aminopyridin-4-yl)methyl)-N2-(1-methyl-1H-imidazol-2-yl)-N1-((R)-1-cyclohexylpropyl)-N2-methyl-4-oxoazetidine-1,2-dicarboxamide]", "values": [
      {"measurement": "Ratio: FXa/FXIa", "setting": "[1]", "value": "I (“I” indicates > 500)"},
      {"measurement": "Ratio: Thrombin/FXIa", "setting": "[2]", "value": "H (“H” indicates 101-1000)"},
      {"measurement": "half-life at 2 μM", "setting": "[3]", "value": "1.02 to 2", "unit": "h"},
      {"measurement": "fraction unbound at 4 h, 10 μM", "setting": "[4]", "value": "0.1 to 0.5"},
      {"measurement": "Ratio: Trypsin/FXIa", "setting": "[5]", "value": "G (“G” indicates 1-100)"}
    ]},
    {"smiles": "CC(C)[C@@H](NC(=O)N1C(=O)[C@H](Cc2ccnc(N)c2)[C@H]1C(=O)N(C)c1ccn(C)n1)C1CCCCC1", "note": "[Compound 1-57, (2S,3R)-3-((2-aminopyridin-4-yl)methyl)-N2-(1-methyl-1H-pyrazol-3-yl)-N1-((R)-1-cyclohexyl-2-methylpropyl)-N2-methyl-4-oxoazetidine-1,2-dicarboxamide]", "values": [
      {"measurement": "Ratio: FXa/FXIa", "setting": "[1]", "value": "I (“I” indicates > 500)"},
      {"measurement": "Ratio: Thrombin/FXIa", "setting": "[2]", "value": "H (“H” indicates 101-1000)"},
      {"measurement": "half-life at 2 μM", "setting": "[3]", "value": "< 1", "unit": "h"},
      {"measurement": "fraction unbound at 4 h, 10 μM", "setting": "[4]", "value": "< 0.05"},
      {"measurement": "Ratio: Trypsin/FXIa", "setting": "[5]", "value": "G (“G” indicates 1-100)"}
    ]},
    {"smiles": "CN(C(=O)[C@@H]1[C@@H](Cc2ccnc(N)c2)C(=O)N1C(=O)N[C@@H](C1CCCCC1)C1CC1)c1ccn(C)n1", "note": "[Compound 1-58, (2S,3R)-3-((2-aminopyridin-4-yl)methyl)-N2-(1-methyl-1H-pyrazol-3-yl)-N1-((R)-cyclohexyl-cyclopropylmethyl)-N2-methyl-4-oxoazetidine-1,2-dicarboxamide]", "values": [
      {"measurement": "Ratio: FXa/FXIa", "setting": "[1]", "value": "I (“I” indicates > 500)"},
      {"measurement": "Ratio: Thrombin/FXIa", "setting": "[2]", "value": "H (“H” indicates 101-1000)"},
      {"measurement": "half-life at 2 μM", "setting": "[3]", "value": "< 1", "unit": "h"},
      {"measurement": "fraction unbound at 4 h, 10 μM", "setting": "[4]", "value": "0.05 to 0.09"},
      {"measurement": "Ratio: Trypsin/FXIa", "setting": "[5]", "value": "G (“G” indicates 1-100)"}
    ]},
    {"smiles": "CC[C@@H](NC(=O)N1C(=O)[C@H](Cc2cc(C)nc(NC)c2)[C@H]1C(=O)N(C)c1ccnn1C)C1CCCCC1", "note": "[Compound 1-62, (2S,3R)-3-((2-methylamino-6-methylpyridin-4-yl)methyl)-N2-(1-methyl-1H-pyrazol-5-yl)-N1-((R)-1-cyclohexylpropyl)-N2-methyl-4-oxoazetidine-1,2-dicarboxamide]", "values": [
      {"measurement": "Ratio: FXa/FXIa", "setting": "[1]", "value": "I (“I” indicates > 500)"},
      {"measurement": "Ratio: Thrombin/FXIa", "setting": "[2]", "value": "I (“I” indicates > 500)"},
      {"measurement": "half-life at 2 μM", "setting": "[3]", "value": "< 1", "unit": "h"},
      {"measurement": "fraction unbound at 4 h, 10 μM", "setting": "[4]", "value": "0.1 to 0.5"},
      {"measurement": "Ratio: Trypsin/FXIa", "setting": "[5]", "value": "G (“G” indicates 1-100)"}
    ]},
    {"smiles": "CC[C@@H](NC(=O)N1C(=O)[C@H](Cc2ccnc(N)c2)[C@H]1C(=O)N(C)c1ccnn1C)C1CCCCC1", "note": "[Compound 1-63, (2S,3R)-3-((2-aminopyridin-4-yl)methyl)-N2-(1-methyl-1H-pyrazol-5-yl)-N1-((R)-1-cyclohexylpropyl)-N2-methyl-4-oxoazetidine-1,2-dicarboxamide]", "values": [
      {"measurement": "Ratio: FXa/FXIa", "setting": "[1]", "value": "I (“I” indicates > 500)"},
      {"measurement": "Ratio: Thrombin/FXIa", "setting": "[2]", "value": "I (“I” indicates > 500)"},
      {"measurement": "half-life at 2 μM", "setting": "[3]", "value": "< 1", "unit": "h"},
      {"measurement": "fraction unbound at 4 h, 10 μM", "setting": "[4]", "value": "0.1 to 0.5"},
      {"measurement": "Ratio: Trypsin/FXIa", "setting": "[5]", "value": "G (“G” indicates 1-100)"}
    ]},
    {"smiles": "CC[C@@H](NC(=O)N1C(=O)[C@H](Cc2cc(C)nc(N)c2)[C@H]1C(=O)N(C)c1ccnn1C)C1CCCCC1", "note": "[Compound 1-67, (2S,3R)-3-((2-amino-6-methylpyridin-4-yl)methyl)-N2-(1-methyl-1H-pyrazol-5-yl)-N1-((R)-1-cyclohexylpropyl)-N2-methyl-4-oxoazetidine-1,2-dicarboxamide]", "values": [
      {"measurement": "Ratio: FXa/FXIa", "setting": "[1]", "value": "I (“I” indicates > 500)"},
      {"measurement": "Ratio: Thrombin/FXIa", "setting": "[2]", "value": "I (“I” indicates > 500)"},
      {"measurement": "half-life at 2 μM", "setting": "[3]", "value": "1.02 to 2", "unit": "h"},
      {"measurement": "fraction unbound at 4 h, 10 μM", "setting": "[4]", "value": "0.1 to 0.5"},
      {"measurement": "Ratio: Trypsin/FXIa", "setting": "[5]", "value": "G (“G” indicates 1-100)"}
    ]},
    {"smiles": "CC[C@@H](NC(=O)N1C(=O)[C@H](Cc2ccnc(N)c2)[C@H]1C(=O)N(C)c1nccn1C)c1cccc(C)c1", "note": "[Compound 1-80, (2S,3R)-3-((2-aminopyridin-4-yl)methyl)-N2-(1-methyl-1H-imidazol-2-yl)-N1-((R)-1-(3-methylphenyl)propyl)-N2-methyl-4-oxoazetidine-1,2-dicarboxamide]", "values": [
      {"measurement": "Ratio: FXa/FXIa", "setting": "[1]", "value": "I (“I” indicates > 500)"},
      {"measurement": "Ratio: Thrombin/FXIa", "setting": "[2]", "value": "H (“H” indicates 101-1000)"},
      {"measurement": "half-life at 2 μM", "setting": "[3]", "value": "2.02 to 4", "unit": "h"},
      {"measurement": "fraction unbound at 4 h, 10 μM", "setting": "[4]", "value": "0.1 to 0.5"},
      {"measurement": "Ratio: Trypsin/FXIa", "setting": "[5]", "value": "G (“G” indicates 1-100)"}
    ]}
  ]
}
